Test results: PMC6981392, “Characterization of a Maltase from an Early-Diverged Non-Conventional Yeast Blastobotrys adeninivorans” (International Journal of Molecular Sciences, 2019)
Entries after “also recorded” stand apart in the source; their conditions may differ. Read-outs that look alike come from different tables or passages of the source.

Key:
B. adeninivorans = test: Growth of B. adeninivorans on sugars (OD 600 nm); format: cell-based, Blastobotrys adeninivorans; conditions: YNB medium, 2 g/L sugar, 24 h, 37 °C
Protocol: Blastobotrys (Arxula) adeninivorans LS3 (CBS 8244) was kindly provided by Assoc. Prof. V. Passoth (SLU, Uppsala, Sweden). The yeast strain was grown on solid YPD medium (20 g/L peptone, 20 g/L glucose, 10 g/L yeast extract, 20 g/L agar) at 30 °C 24 h for harvesting the cells for genomic DNA extraction. E. coli DH5α (Thermo Fisher Scientific, Waltham, MA, USA) was used for DNA cloning and plasmid production. E. coli BL21 (DE3) was used for heterologous expression of BaAG2. The ability of B. adeninivorans to grow on sugars was assayed as in [12]. Yeast cells grown overnight on BD Difco YNB medium (Thermo Fisher Scientific, Waltham, MA, USA) without amino acids containing 2 g/L glucose were used as inoculum. […] The cells were incubated on Greiner 96-well flat-bottom transparent polystyrene microplates (Greiner Bio-One, Frickenhausen, Germany) in 200 µl under agitation for 24 h at 37 °C. Optical density of the culture at 600 nm was measured against inoculated medium without sugar at the beginning and end of the experiment using an Infinite M200 PRO microplate reader (Tecan Group Ltd., Männedorf, Switzerland) equipped with Tecan i-control v. 1.7 software from the same provider. Two independent experiments with two parallel measurements were conducted.

BaAG2 [1] = biological target: T1, BaAG2 (Blastobotrys adeninivorans, UniProt Z9CO09ION3); test: Substrate specificity of BaAG2 on 100 mM sugars and 1 mM pNPG; format: biochemical; conditions: 100 mM sugars, pH 6.5, 30 °C
T1 sequence (Z9CO09ION3 1-580): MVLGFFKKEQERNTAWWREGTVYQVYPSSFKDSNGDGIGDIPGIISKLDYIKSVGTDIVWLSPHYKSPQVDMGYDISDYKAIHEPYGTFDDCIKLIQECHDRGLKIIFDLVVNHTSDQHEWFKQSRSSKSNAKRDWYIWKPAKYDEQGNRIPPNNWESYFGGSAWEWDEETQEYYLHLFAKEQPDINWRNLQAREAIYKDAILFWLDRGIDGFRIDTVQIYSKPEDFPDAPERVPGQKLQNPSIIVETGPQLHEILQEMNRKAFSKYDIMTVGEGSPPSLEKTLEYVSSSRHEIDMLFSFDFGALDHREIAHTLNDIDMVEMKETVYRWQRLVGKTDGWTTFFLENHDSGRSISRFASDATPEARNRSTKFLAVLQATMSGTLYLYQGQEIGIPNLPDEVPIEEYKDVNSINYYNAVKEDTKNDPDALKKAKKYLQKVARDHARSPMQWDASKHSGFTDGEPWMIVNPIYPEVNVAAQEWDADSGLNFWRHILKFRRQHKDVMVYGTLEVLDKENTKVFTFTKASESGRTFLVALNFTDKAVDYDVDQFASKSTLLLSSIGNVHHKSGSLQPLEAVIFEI
Protocol: Hydrolysis of pNPG was assayed as in [16, 40] according to the release of p-nitrophenol. 100 mM K-phosphate buffer (pH 6.5) was used and reactions were conducted at 30 °C if not stated otherwise. The purified enzyme was unstable if diluted therefore 5 g/L bovine serum albumin (BSA) was added to the dilution buffer as a protein stabilizer to retain its full catalytic activity. […] The content of the released glucose was determined spectrophotometrically as in [16, 47]. The activities (µmoles of glucose released per minute per mg of protein; U/mg) were calculated from initial velocities of the reaction. For kinetic analysis, initial rates of p-nitrophenol or glucose release from substrates were measured at four to seven concentrations ranging from 0.1–3.0 mM for pNPG and 2.5–250 mM for di- and trisaccharides. At least three independent measurements for each substrate and concentration were made. BaAG2 content in reaction mixtures ranged from 0.02 to 3.5 µg/mL. […] The theoretical Mw value of 67,901 Da for the kcat calculation was computed in ExPASy Proteomics Server (http://expasy.org).

BaAG2 [2] = biological target: T1, BaAG2; test: Kinetics of hydrolysis of pNPG and sugars by BaAG2; conditions: for Vmax ± SD / kcat ± SD / Km: substrate hydrolysis, pH 6.5, 30 °C; for kcat ± SD: calculated from Vmax with Mw 67,901 Da; for Km: read-out: Km ± SD
Protocol: (§1) 100 mM K-phosphate buffer (pH 6.5) was used and reactions were conducted at 30 °C if not stated otherwise. The purified enzyme was unstable if diluted therefore 5 g/L bovine serum albumin (BSA) was added to the dilution buffer as a protein stabilizer to retain its full catalytic activity. […] The content of the released glucose was determined spectrophotometrically as in [16, 47]. The activities (µmoles of glucose released per minute per mg of protein; U/mg) were calculated from initial velocities of the reaction. […] At least three independent measurements for each substrate and concentration were made.

[3] = test system: B. adeninivorans CBS 8244; parameters: method as in earlier work; conditions: CBS-KNAW culture collection; cited from earlier work
BaAG2 [4] = biological target: T1, BaAG2; test: Inhibition of pNPG hydrolysis by BaAG2
Protocol: as §1
The Ki values were calculated using enzyme kinetics module of the SigmaPlot (Systat Software, San Jose, CA, USA).

[5] = test system: extracellular α-glucosidase of Schizosaccharomyces pombe; conditions: on maltose; cited from earlier work
[6] = test system: α-glucosidase of A. niger; parameters: method as in doi:10.1271/bbb1961.55.2327; conditions: on maltose; cited from earlier work
BaAG2 [7] = biological target: T1, BaAG2; test: TLC assay of panose hydrolysis by BaAG2; conditions: 50 mM panose, extended (22 h) reaction time
Protocol: The reaction samples were analyzed using TLC.
To visualize hydrolysis and polymerization products, the TLC analysis was conducted as in [16] on Silica Gel 60 F254 plates with concentrating zone (Merck, Darmstadt, Germany). 0.5 µl of the stopped reaction mixture were spotted onto the plate and sugars were separated with two runs in chloroform:acetic acid:water (6:7:1, v:v:v) [67]. For the analysis of products of polysaccharide degradation, 3 µl of the reaction mixtures were spotted. Sugars were visualized by immersion of the plates in aniline-diphenylamine reagent and subsequent heating of the dried plates at 100 °C [68].

BaAG2 [8] = biological target: T1, BaAG2; test: Differential scanning fluorimetry (DSF) thermostability of BaAG2 with ligands; format: binding; conditions: 2 µM BaAG2, unliganded Tm 51 °C; 100 mM fructose, 50 mM palatinose, 50 mM glucose, 5 mM Tris, 5 mM acarbose; HEPES pH 7.0
Protocol: The reaction was conducted in 50 mM 4-(2-hydroxyethyl)-1-piperazineethanesulfonic acid) (HEPES) buffer (pH 7.0) with 150 mM NaCl. […] At least two independent experiments were performed with two technical replicates.

BaAG2 [9] = biological target: T1, BaAG2; test: Degradation of glucose polymers by BaAG2 (glucose release, TLC); format: biochemical; conditions: polysaccharide 5 g/L, 20 µg/mL enzyme
Protocol: Polysaccharide concentration in the reaction mixture was 5 g/L, and 20 µg/mL of the enzyme was used. At desired time points (2 h, 24 h, 74/96 h) aliquots were withdrawn and heated to stop the reaction. A negative control containing 20 µg/mL BSA instead of the enzyme was incubated alongside. Concentration of released glucose was measured as described above and 3 µl of the samples were analysed on TLC. Maltase from S. cerevisiae (ScMAL62), amyloglycosidase from Aspergillus niger (Sigma-Aldrich, Merck, Darmstadt, Germany) and α-amylase from Aspergillus oryzae (Sigma-Aldrich, Merck, Darmstadt, Germany) were reacted with tested glucose polymers for comparison.

Question: For `OC[C@H]1O[C@H](OC[C@H]2OC(O)(CO)[C@@H](O)[C@@H]2O)[C@H](O)[C@@H](O)[C@@H]1O` (stereo partly shown) [Palatinose], which “growth of B. adeninivorans on sugar” value (B. adeninivorans) is on record?
Answer: new growth substrates

Question: What about the “hydrolysis by BaAG2” value (BaAG2 [1]) of the same molecule?
Answer: not hydrolyzed; also recorded: could not hydrolyze

Question: Which results are given for `OC[C@H]1O[C@@](CO)(O[C@H]2O[C@H](CO)[C@@H](O)[C@H](O)[C@H]2O)[C@@H](O[C@H]2O[C@H](CO)[C@@H](O)[C@H](O)[C@H]2O)[C@@H]1O` [Melezitose]?
Answer: Vmax ± SD (BaAG2 [2]): 231.0 ± 31.8 µmol/mg/min; kcat ± SD (BaAG2 [2]): 261.4 ± 36.1 s⁻¹; hydrolysis by BaAG2 (BaAG2 [1]): could hydrolyze; assimilation by B. adeninivorans CBS 8244 [3]: assimilates

Question: Which “assimilation by B. adeninivorans CBS 8244” value (“assimilation” below) [3] does the source give for `OC[C@H]1O[C@H](O[C@H]2O[C@H](CO)[C@@H](O)[C@H](O)[C@H]2O)[C@H](O)[C@@H](O)[C@@H]1O` [trehalose] here?
Answer: assimilates

Question: With `OC[C@H]1O[C@@](CO)(O[C@H]2O[C@H](CO)[C@@H](O)[C@H](O)[C@H]2O)[C@@H](O)[C@@H]1O` [Sucrose, α-D-Glc-(1→2)-β-D-Fru] as the molecule, how does the “hydrolysis by BaAG2” value (BaAG2 [1]) read?
Answer: could hydrolyze

Question: And the “assimilation” value [3]?
Answer: assimilates

Question: Which results are given for `OC[C@H]1O[C@H](OC[C@H]2OC(O)[C@H](O)[C@@H](O)[C@@H]2O)[C@H](O)[C@@H](O)[C@@H]1O` (stereo partly shown) [Isomaltose]?
Answer: growth of B. adeninivorans on sugar (B. adeninivorans): new growth substrates; hydrolysis by BaAG2 (BaAG2 [1]): not hydrolyzed; hydrolysis by BaAG2 (BaAG2 [1]; listed as isomaltose): could not hydrolyze; Inhibition Mode (BaAG2 [4]): Competitive

Question: With `O=C(CO)[C@@H](O)[C@H](O)[C@H](O)CO` [Fructose] as the molecule, how does the “Inhibition Mode” value (BaAG2 [4]) read?
Answer: Competitive

Question: Which results are given for `O=[N+]([O-])c1ccc(O[C@@H]2O[C@H](CO)[C@H](O)[C@H](O)[C@H]2O)cc1` [pNPG, p-nitrophenyl-α-D-glucopyranoside, reference compound]?
Answer: Vmax (BaAG2 [2]): over 750 U/mg; Km (BaAG2 [2]): 0.76 ± 0.03 mM; Vmax ± SD (BaAG2 [2]): 751.3 ± 14.5 µmol/mg/min; kcat ± SD (BaAG2 [2]): 850.2 ± 16.4 s⁻¹; hydrolysis by BaAG2 (BaAG2 [1]): could hydrolyze

Question: Which kcat [5] does the source give for `OC[C@H]1O[C@H](O[C@H]2[C@H](O)[C@@H](O)C(O)O[C@@H]2CO)[C@H](O)[C@@H](O)[C@@H]1O` (mixture of isomers) [Maltose] here?
Answer: 709 s⁻¹

Question: And the “Catalytic constant (kcat)” value [6]?
Answer: 144 s⁻¹

Question: And the “hydrolysis by BaAG2” value (BaAG2 [1])?
Answer: could hydrolyze

Question: What about the “assimilation” value [3] of the same molecule?
Answer: assimilates

Question: For `OC[C@H]1O[C@H](OC[C@H]2O[C@H](O[C@H]3[C@H](O)[C@@H](O)C(O)O[C@@H]3CO)[C@H](O)[C@@H](O)[C@@H]2O)[C@H](O)[C@@H](O)[C@@H]1O` (stereo partly drawn) [panose, α-D-Glc-(1→6)-α-D-Glc-(1→4)-D-Glc], which “hydrolysis by BaAG2” value (BaAG2 [7]) is on record?
Answer: not hydrolyzed

Question: For Maltotriose, which “growth of B. adeninivorans on sugar” value (B. adeninivorans) is on record?
Answer: new growth substrates

Question: And the “hydrolysis by BaAG2” value (BaAG2 [1])?
Answer: could hydrolyze

Question: With `C[C@H]1O[C@H](O[C@H]2[C@H](O)[C@@H](O)[C@@H](O[C@H]3[C@H](O)[C@@H](O)C(O)O[C@@H]3CO)O[C@@H]2CO)[C@H](O)[C@@H](O)[C@@H]1N[C@H]1C=C(CO)[C@@H](O)[C@H](O)[C@H]1O` (stereo partly shown) [Acarbose, reference compound] as the molecule, how does the Ki (BaAG2 [4]; read-out: Ki ± SD, values marked * are given in µM, pH 6.5, 30 °C) read?
Answer: 0.83 ± 0.01 µM

Question: And the Ki (BaAG2 [4]; read-out: Ki ± SD, values marked * are given in µM, pH 6.5, 30 °C, listed as acarbose)?
Answer: 0.8 µM

Question: With `OC[C@H]1OC(O)[C@H](O)[C@@H](O)[C@@H]1O` (stereo partly shown) [Glucose] as the molecule, how does the “increase of Tm in the presence of a ligand” value (BaAG2 [8]) read?
Answer: 4.4 °C

Question: And the “Inhibition Mode” value (BaAG2 [4])?
Answer: Competitive

Question: Which “growth of B. adeninivorans on sugar” value (B. adeninivorans) does the source give for `O=C(CO)[C@@H](O[C@H]1O[C@H](CO)[C@@H](O)[C@H](O)[C@H]1O)[C@H](O)[C@H](O)CO` [Turanose] here?
Answer: new growth substrates

Question: And the Km (BaAG2 [2])?
Answer: 45.2 ± 6 mM

Question: What about the “Vmax ± SD” value (BaAG2 [2]) of the same molecule?
Answer: 190.1 ± 10.4 µmol/mg/min

Question: And the “kcat ± SD” value (BaAG2 [2])?
Answer: 215.1 ± 11.9 s⁻¹

Question: What about the “hydrolysis by BaAG2” value (BaAG2 [1]) of the same molecule?
Answer: could hydrolyze

Question: What does the source list for amylopectin?
Answer: glucose released (BaAG2 [9]; by 24 h): 0.1 g/L; glucose released (BaAG2 [9]; by 72 h): 0.3 g/L

Question: Which “growth of B. adeninivorans on sugar” value (B. adeninivorans) does the source give for Maltulose here?
Answer: new growth substrates

Question: What about the Km (BaAG2 [2]) of the same molecule?
Answer: 7.8 ± 1 mM

Question: And the “Vmax ± SD” value (BaAG2 [2])?
Answer: 52.2 ± 1.8 µmol/mg/min

Question: And the “kcat ± SD” value (BaAG2 [2])?
Answer: 59.1 ± 2.1 s⁻¹

Question: And the “hydrolysis by BaAG2” value (BaAG2 [1])?
Answer: could hydrolyze

Question: For `CO[C@H]1O[C@H](CO)[C@@H](O)[C@H](O)[C@H]1O` [α-MG, α-methylglucoside, reference compound], which “hydrolysis by BaAG2” value (BaAG2 [1]) is on record?
Answer: could not hydrolyze

Question: And the “hydrolysis by BaAG2” value (BaAG2 [1]; listed as α-methylglucoside)?
Answer: not hydrolyzed

Question: And the “Inhibition Mode” value (BaAG2 [4])?
Answer: Competitive

Question: And the “assimilation” value [3]?
Answer: assimilates
